According to ChEMBL document CHEMBL4665792 (J Med Chem, 2020):
Activity calls are given as the source filed them. The calls are words filed in the database; no cut-off is given here.

Experiments:
HT-29 [1] = test: Antiproliferative activity against human HT-29 cells assessed as reduction in cell viability incubated for 24 hrs by MTT assay; format: functional, cell-based; conditions: HT-29, 24 h
HCT-116 [2] = test: Antiproliferative activity against human HCT-116 cells assessed as reduction in cell viability incubated for 24 hrs by MTT assay; format: functional, cell-based; conditions: HCT-116, 24 h
HepG2 = test: Antiproliferative activity against human HepG2 cells assessed as reduction in cell viability incubated for 24 hrs by MTT assay; format: functional, cell-based; conditions: HepG2, 24 h
MCF7 = test: Antiproliferative activity against human MCF7 cells assessed as reduction in cell viability incubated for 24 hrs by MTT assay; format: functional, cell-based; conditions: MCF7, 24 h
L02 = test: Cytotoxicity against human L02 cells assessed as cell viability incubated for 24 hrs by MTT assay; format: cell-based; conditions: L02, 24 h
HK-2 = test: Cytotoxicity against human HK2 cells assessed as cell viability incubated for 24 hrs by MTT assay; format: cell-based; conditions: HK-2, 24 h
Homo sapiens = species on record: Homo sapiens; test: Inhibition of TrxR (unknown origin) at 5 uM in presence of NADPH by Ellman's method
[3] = Inhibition of TrxR (unknown origin) in presence of NADPH by Ellman's method; set-up: species or system Homo sapiens
[4] = Inhibition of Escherichia coli Trx incubated for 1.5 hrs in presence of DTT and insulin
[5] = Inhibition of TrxR in human HT-29 cells incubated for 30 mins in presence of insulin, NADPH and Trx by DTNB reagent based assay; format: cell-based
[6] = Inhibition of TrxR in human HT-29 cells incubated for 60 mins in presence of insulin, NADPH and Trx by DTNB reagent based assay; format: cell-based
[7] = Inhibition of TrxR in human HT-29 cells incubated for 90 mins in presence of insulin, NADPH and Trx by DTNB reagent based assay; format: cell-based
[8] = Covalent inhibition of TrxR (unknown origin) assessed as covalent bond formation incubated up to 30 mins in presence of NADPH by Ellman's method; set-up: species or system Homo sapiens
HT-29 [9] = test: Down regulation of Trx expression in human HT29 cells at 0.25 to 1 uM incubated for 24 hrs by Western blot analysis; format: functional, cell-based
HT-29 [10] = test: Down regulation of TrxR expression in human HT29 cells at 0.25 to 1 uM incubated for 24 hrs by Western blot analysis; format: functional, cell-based
HT-29 [11] = test: Inhibition of TrxR in human HT29 cells assessed as decrease in ASK1 to phosphorylated ASK1 expression ratio at 0.25 to 1 uM incubated for 24 hrs by Western blot analysis; format: cell-based
HT-29 [12] = test: Inhibition of TrxR in human HT29 cells assessed as increase in p53 to GAPDH expression ratio at 0.25 to 1 uM incubated for 24 hrs by Western blot analysis; format: cell-based
HT-29 [13] = test: Inhibition of TrxR in human HT-29 cells assessed as increase in production of intracellular ROS incubated for 24 hrs by DCFH-DA staining-based flow cytometric analysis; format: cell-based
HCT-116 [14] = test: Inhibition of TrxR in human HCT-116 cells assessed as increase in production of intracellular ROS incubated for 24 hrs by DCFH-DA staining-based flow cytometric analysis; format: cell-based
HT-29 [15] = test: Antiproliferation activity against human HT-29 cells assessed as reduction in monoclonal ability incubated for 24 hrs followed by fresh medium supplementation every 2 to 3 days for 14 days by crystal violet staining based analysis; format: functional, cell-based; conditions: dose microM 0.015-0.06, time 24.0 hrs
HT-29 [16] = test: Antiproliferation activity against human HT-29 cells assessed as decrease in number of EdU-positive cells at 0.125 to 0.5 uM incubated for 20 hrs followed by addition of EdU-labelling agent measured after 8 hrs by Hoechst-33258 staining based analysis; format: functional, cell-based; conditions: dose microM 0.125-0.500, time 28.0 hrs
HT-29 [17] = test: Cell cycle arrest in human HT-29 cells assessed as accumulation at G2/M phase incubated for 24 hrs by propidium iodide staining based flow cytometry; format: functional; conditions: dose microM 0.125-0.5, time 24.0 hrs
HT-29 [18] = test: Induction of apoptosis in human HT-29 cells assessed as cell death at 0.25 to 1 uM incubated for 24 hrs by Annexin V-FITC/propidium iodide staining based flow cytometry; format: functional
HT-29 [19] = test: Induction of mitochondrial membrane potential loss in human HT-29 cells assessed as decrease in red to green fluorescence intensity ratio at 0.125 to 1 uM incubated for 24 hrs by JC-1 dye based fluorescence spectrophotometric analysis; format: functional, cell-based; conditions: dose microM 0.125-1, time 24.0 hrs
HT-29 [20] = test: Induction of apoptosis in human HT-29 cells assessed as decrease in expression of Bcl-2 at 0.25 to 1 uM treated for 24 hrs by Western blot analysis; format: functional, cell-based
HT-29 [21] = test: Induction of apoptosis in human HT-29 cells assessed as increase in expression of Bax at 0.25 to 1 uM treated for 24 hrs by Western blot analysis; format: functional, cell-based
HT-29 [22] = test: Induction of apoptosis in human HT-29 cells assessed as increase in expression of cleaved caspase-3 at 0.25 to 1 uM treated for 24 hrs by western blot analysis; format: functional, cell-based
HT-29 [23] = test: Induction of apoptosis in human HT-29 cells assessed as increase in expression of cleaved PARP at 0.25 to 1 uM treated for 24 hrs by Western blot analysis; format: functional, cell-based
[24] = Selectivity index, ratio IC50 for human L02 cells to IC50 for human HT-29 cells; format: toxicity; conditions: L02 cells versus HT-29 cells, read-out: Ratio IC50
[25] = Selectivity index, ratio IC50 for human HK2 cells to IC50 for human HT-29 cells
HT-29 [26] = test: Inhibition of TrxR in human HT-29 cells incubated for 24 hrs in presence of insulin, NADPH and Trx by DTNB reagent based assay; format: cell-based
[27] = molecular target: T1, Thioredoxin (Homo sapiens) (UniProt P10599); test: Inhibition of Trx in human HT-29 cells incubated for 24 hrs in presence of insulin, NADPH and DTT; format: cell-based
T1 sequence (whole entry): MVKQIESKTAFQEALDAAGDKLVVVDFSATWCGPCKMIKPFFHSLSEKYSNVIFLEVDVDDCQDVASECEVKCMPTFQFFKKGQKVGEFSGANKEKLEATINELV

[28] = molecular target: T2, Glutathione reductase, mitochondrial (Homo sapiens) (UniProt P00390); test: Inhibition of GR in human HT-29 cells incubated for 24 hrs in presence of GSSG and NADPH; format: cell-based
T2 sequence (whole entry): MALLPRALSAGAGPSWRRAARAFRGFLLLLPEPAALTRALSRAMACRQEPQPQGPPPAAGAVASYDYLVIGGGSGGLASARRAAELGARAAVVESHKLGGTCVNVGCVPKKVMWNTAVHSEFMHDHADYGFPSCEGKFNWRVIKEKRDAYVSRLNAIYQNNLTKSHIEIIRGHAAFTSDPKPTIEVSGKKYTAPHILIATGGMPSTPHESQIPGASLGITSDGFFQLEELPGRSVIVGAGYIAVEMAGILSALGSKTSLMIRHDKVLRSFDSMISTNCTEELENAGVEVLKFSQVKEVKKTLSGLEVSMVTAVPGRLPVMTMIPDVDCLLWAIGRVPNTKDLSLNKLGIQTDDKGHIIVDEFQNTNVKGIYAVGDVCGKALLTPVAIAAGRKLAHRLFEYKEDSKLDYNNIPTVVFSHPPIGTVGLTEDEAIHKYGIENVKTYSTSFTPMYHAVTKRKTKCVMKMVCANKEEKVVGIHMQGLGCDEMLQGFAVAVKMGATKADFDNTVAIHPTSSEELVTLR

HT-29 [29] = test: Inhibition of GPx in human HT-29 cells incubated for 24 hrs in presence of GSH, NADPH and GR measured at 10 secs interval for 4 mins; format: cell-based; conditions: time 1444.0 min
Rattus norvegicus [30] = species on record: Rattus norvegicus; test: Binding affinity to rat liver TrxR assessed as SGGDILQSGCUG-adduct formation by measuring retention time at 10 uM incubated for 1.5 hrs by LC-MS/MS analysis
Rattus norvegicus [31] = species on record: Rattus norvegicus; test: Binding affinity to rat liver TrxR assessed as RSGGDILQSGCUG-adduct formation by measuring retention time at 10 uM incubated for 1.5 hrs by LC-MS/MS analysis
[32] = Binding affinity to NAC assessed as sulfhydryl group-adduct formation at 5 mg by online NMR analysis
[33] = Binding affinity to NAC assessed as sulfhydryl group-adduct formation at 5 mg incubated for 1.5 hrs by LC-MS/MS analysis
[34] = Binding affinity to DTT assessed as sulfhydryl group-adduct formation at 5 mg incubated for 1.5 hrs by LC-MS/MS analysis
HT-29 [35] = test: Binding affinity to sulfhydryl group in human HT-29 cells assessed as decrease in total content of sulfhydryl groups; format: cell-based
HT-29 [36] = test: Potency index, ratio of Withangulatin A IC50 to test compound IC50 for antiproliferative activity against human HT-29 cells assessed as reduction in cell viability; format: functional

IC50 (HT-29 [1]): 80 nM | IC50 (HCT-116 [2]): 130 nM | IC50 (HepG2): 110 nM | IC50 (MCF7): 330 nM | inhibition (Homo sapiens): Active | IC50 [3]: 850 nM | IC50 [4]: > 2500 nM | IC50 [5]: 970 nM | IC50 [6]: 870 nM | IC50 [7]: 850 nM | Ki [8]: 932 nM | inhibition [27]: Active | inhibition [28]: Active | Retention time (Rattus norvegicus [30]): 31.7 min | Retention time (Rattus norvegicus [31]): 33.9 min | Activity [32]: Active | Activity [33]: Active | Activity [34]: Active
Structure (SMILES): CC(=O)O[C@H]1C=C([C@H](C)[C@H]2CC(C)=C(C)C(=O)O2)[C@@]2(C)CC[C@H]3[C@@H](C[C@H]4O[C@]45[C@@H](OC(=O)/C=C/C(=O)N(C)C)C=CC(=O)[C@]35C)[C@]12O
IC50 (L02): 5250 nM | IC50 (HK-2): 4530 nM | Activity (HT-29 [9]): Active | Activity (HT-29 [10]): Active | inhibition (HT-29 [11]): Active | inhibition (HT-29 [12]): Active | inhibition (HT-29 [13]): Dose-dependent effect | inhibition (HCT-116 [14]): Dose-dependent effect | Activity (HT-29 [15]): Dose-dependent effect | Activity (HT-29 [16]): Active | Activity (HT-29 [17]): Dose-dependent effect | Activity (HT-29 [18]): Active | Activity (HT-29 [19]): Active | Activity (HT-29 [20]): Active | Activity (HT-29 [21]): Active | Activity (HT-29 [22]): Active | Activity (HT-29 [23]): Active | selectivity ratio [24]: 66 | Ratio IC50 [25]: 56 | inhibition (HT-29 [26]): Active | inhibition (HT-29 [29]): Active | Activity (HT-29 [35]): Active | Ratio IC50 (HT-29 [36]): 30
